# Measurements published in US11970475B1, “4-(1-(2-Hydroxypropyl)-4,5-diphenyl-1H-imidazol-2-yl)pyridin-3-ol as an antimicrobial compound” (KING FAISAL UNIVERSITY, priority 2023, dated 2024).
# Key:
# St. Aereus = assay: Anti-microbial screening, agar dilution, St. Aereus; type: cell-based, Staphylococcus aureus; details: after 10, 20, 40 and 60 minutes at all dilutions 1:100, 1:200, 1:400, 1:800
# Description: (§1) The antibacterial properties of the present compound were studied by the method of agar dilution. Test solutions of the compound were prepared in a concentration of 1% using dimethylformamide as a solvent then they are diluted in physiological solution to obtain the final experimental dilutions 1:100, 1:200, 1:400, and 1:800. The effect of these substances were compared with furacillin in a controllable study. The testing microbes used were gram positive bacteria St. Aereus, gram negative bacteria E. Coli, Ps. aeruginosa and Candida albicans fungi were taken. The experiments used for this survey were meat-pentonlu agar (EPA) for cultivation of bacteria and Saburo environment for fungi. Each experiment used 1 ml of test solution on each plate 500 min. Add 2 drops of emulsified with microbes feel. All experimental samples were taken from the agar after 10, 20, 40, and 60 minutes in the environment on the basis of Patrk planted. Bacteria were cultivated at a temperature of 37° C. for 1 day and the mushroom was kept in a thermostat for […] at a temperature of 28° C. Then results were checked.
# Candida albicans = assay: Anti-microbial screening, agar dilution, Candida albicans; type: cell-based; details: after 10, 20, 40 and 60 minutes at all dilutions 1:100, 1:200, 1:400, 1:800
# Description: as §1
# Ps. aeruginosa = assay: Anti-microbial screening, agar dilution, Ps. aeruginosa; type: cell-based, Pseudomonas aeruginosa; details: after 10, 20, 40 and 60 minutes at all dilutions 1:100, 1:200, 1:400, 1:800
# Description: as §1
# E. Coli = assay: Anti-microbial screening, agar dilution, E. Coli; type: cell-based, Escherichia coli; details: after 10, 20, 40 and 60 minutes at all dilutions 1:100, 1:200, 1:400, 1:800
# Description: as §1
structure (smiles),measurement,setting,value
"CC(O)Cn1c(-c2ccncc2O)nc(-c2ccccc2)c1-c1ccccc1 (centres unmarked) [4-(1-(2-Hydroxypropyl)-4,5-diphenyl-1H-imidazol-2-yl)pyridin-3-ol]",inhibition activity (in words),St. Aereus,highest inhibition activity
same,inhibition activity (in words),Candida albicans,highest inhibition activity
same,inhibition activity (in words),Ps. aeruginosa,highest inhibition activity
same,melting point,,117 to 118 °C
same,inhibition activity (in words),E. Coli,highest inhibition activity
